Assay results as given in a melting point compilation (Tetko et al.; mined from patent text by program, amines drawn as free bases though some values may be those of a salt).

| SMILES | melting point |
| --- | --- |
| CCOC(=O)CCCOc1ccc(C(=O)Nc2ccccc2S(=O)(=O)c2ccccc2-c2nnn[nH]2)cc1 | 182 to 184 °C |
| N#Cc1cccc(NC(=O)c2ccn(-c3ccc(Cl)cc3)c2)c1N1CCC(N2CCOCC2)CC1 | 220 °C |
| N#CC1=C(c2cc3ccccc3s2)Nc2n[nH]cc2C1c1cccc2nonc12 (stereo unspecified) | 220 °C |
| O=C1CN(C(=O)Cl)C(c2ccccc2)c2cc(Cl)ccc2N1 (stereo unspecified) | 181 to 184 °C |
| CC(=O)Nc1ccc(-c2c(Cl)c(CCl)nc3sc4c(c23)CCN(Cc2ccccc2)C4)cc1 | 203 to 204 °C |
| CCCc1c(OCCCCCc2ccc3cc(O)c(O)cc3c2)ccc(C(=O)O)c1O | 165 to 167 °C |
| Nc1cccnc1Nc1ccc(Cl)cc1C(=O)c1ccccc1Cl | 162 to 164 °C |
| C=CCN(C)C1(C#N)CCC2(CC1)OCCO2 | 47 to 50 °C |
| CC(=O)N1CCN(C(=O)Cc2ccc(Cl)c(Cl)c2)C(CN2CCC(O)C2)C1 (stereo unspecified) | 133 °C |
| CNC(=S)NS(=O)(=O)c1cc(CCNC(=O)c2cc(C(C)(C)C)ccc2OC)ccc1OC | 165 to 168 °C |
| COc1ccc(CNc2n[nH]c(N)c2C#N)cc1 | 148 to 149 °C |
| C#CCOc1ccc2c(c1)Sc1cc([N+](=O)[O-])ccc1N2 | 226 to 227 °C |
| CCCCCCCCCCCCCCCCCCNC(=O)OCC(CO)NC(=O)OC(C)(C)C (stereo unspecified) | 73 to 75 °C |
| OCCOc1ccc(-c2nc(-c3ccc(OCCO)cc3O)nc(-c3ccc(OCCO)cc3O)n2)cc1 | 169 °C |
| NS(=O)(=O)c1cc(C(=O)CCCC(=O)O)cc2c1OCC2 | 207 to 209 °C |
| CCOC(=O)Cc1ccc(NC(=O)C(CO)NS(=O)(=O)c2ccc(Cl)cc2)cc1 (racemic) | 139 to 140 °C |
| CN1CCC(c2ccccc2)(c2ccccc2)CC1 | 71 to 73 °C |

Further lines, results first:

| melting point | SMILES |
| --- | --- |
| 89 to 89.6 °C | COC(=O)/C(O)=C1/C(=O)c2ccc(OC)cc2CC1C (stereo unspecified) |
| 35 to 37 °C | CCOC(=O)c1ccc2oc(CC)nc2c1 |
| 119 to 121 °C | CC(O)C(C)C1=C2C(C)(C)C3CCC2(C3)C(C)(C)CC1 (stereo unspecified) |
| 208 to 210 °C | C[C@@H](NC(=O)c1cnn(-c2ccc(C(F)(F)F)cc2)c1N)[C@](O)(Cn1cncn1)c1ccc(F)cc1F |
| 124 to 127 °C | Cc1ccc(C)c(NC(=O)N2CCC(c3nc(C4=NOC(c5ccccc5)C4)cs3)CC2)c1 (stereo unspecified) |
| 70 to 71 °C | CCOC(=O)C(c1ccc(N)cc1)N(C)C(C)C (stereo unspecified) |
| 177 °C | Cc1csc(NC(=O)C2=C(O)c3ccc4ccccc4c3S(=O)(=O)N2C)n1 |
| 138 to 139 °C | COC(Cc1c(Br)cc(Br)c(C(N)=O)c1Br)C(=O)O (stereo unspecified) |
| 62 to 64 °C | CN1CC2CC1CN2C1=Nc2cc(Cl)ccc2Sc2ccccc21 (stereo unspecified) |
| 118 to 120 °C | Cc1cc(C(O)(C(F)(F)F)C(F)(F)F)cc(C)c1OCC(=O)O |
| 66 to 67 °C | CC(=O)NCCCCc1ccc(C(=O)C(C)Cl)cc1 (stereo unspecified) |
| 184 to 186 °C | COc1ccc2[nH]c(C(=O)NCCN(C)C)c(-c3ccccc3F)c2c1 |
| 93 to 95 °C | CCOC(=O)C1=C(C)NC(=S)N(C(=O)OCC)C1c1cccc(C)c1 (stereo unspecified) |
| 228 to 230 °C | O=c1[nH][nH]c(=O)c2c(O)c3cc(Cl)ccc3nc12 |
| 254 to 256 °C | CCNc1nc2ccccc2n2cnnc12 |
| 240 to 243 °C | CN(CCN(C)[C@H]1CC[C@H](c2ccc3[nH]c(=O)oc3c2)CC1)c1ccccc1 |
| 59 to 60 °C | CCOc1ccc(OC)c2c1CCC=C2 |
| 73 to 74 °C | COC1(c2cc(F)cc(Sc3ccc(C(C)=O)cn3)c2)CCOCC1 |
| 116 to 118 °C | CC(C=CC1(O)C(C)=CC2(OCCO2)c2ccccc21)=CCO (stereo unspecified) |
| 158 to 160 °C | Cc1nc2cc(C#N)ccc2s1 |
| 185 to 186 °C | [O-][N+]1=C(c2ccccc2F)c2cc(Cl)ccc2-c2ncncc2C1 |
| 47 to 48 °C | CSc1cc(C=O)nn1C |
| 154 to 155 °C | COc1ccc(C(O)C(C)=CC(=O)O)c(C(C)C)c1OC (stereo unspecified) |
| 70 to 72 °C | CC1(C)Cc2ccccc2C=[N+]1[O-] |
